Results on 19 compounds are retold here after ChEMBL document CHEMBL4627383, “Optimization of 2-(1H-imidazo-2-yl)piperazines series of Trypanosoma brucei growth inhibitors as potential treatment for the second stage of HAT” (Bioorg Med Chem Lett, 2020).

Activity calls are given as the source filed them. The calls are words filed in the database; no cut-off is given here.

Data set [1] has as its system Trypanosoma brucei. Kind of data set: Antitrypanosomal activity against Trypanosoma brucei assessed as parasite growth inhibition in presence of 10% FBS. Format: functional, organism-based.
In data set [2] the test system is Trypanosoma brucei. The data set is described as follows: Antitrypanosomal activity against Trypanosoma brucei assessed as parasite growth inhibition in presence of 50% mouse serum. Format: functional, organism-based.
Data set [3] is described as follows: Half life in human hepatocytes. The format is ADME, cell-based, Hepatocyte.
Data set [4] can be described thus: Half life in mouse hepatocytes. Format: ADME, cell-based, Hepatocyte.
Data set [5] is described as follows: Protein binding in mouse plasma assessed as unbound fraction. The format is ADME, cell-free.
The nature of data set [6]: Oral bioavailability in C57BL6 mouse at 30 mg/kg. Format: ADME, organism-based. Conditions: in vivo.
Data set [7] in a line: Cmax in C57BL6 mouse at 30 mg/kg, ip. Format: ADME, organism-based. On the set-up: dose 30 mg/kg, route intraperitoneal. The note with it: in vivo.
A short description of data set [8]: (§1) Cytotoxicity against human HeLa cells assessed as reduction in cell viability. The format is cell-based. The note with it: HeLa cells.
Data set [9] can be described thus: (§2) Cytotoxicity against HUVEC assessed as reduction in cell viability. The format is cell-based. Conditions: human.
A short description of data set [10]: Permeability in porcine brain endothelial cells/rat astrocytes model system. The format is ADME, cell-based. Conditions: read-out: permeability.
The subject of data set [11] is Trypanosoma brucei rhodesiense. Kind of data set: […] activity against Trypanosoma brucei rhodesiense assessed as reduction in parasite viability after 2 hrs by time kill assay. The format is functional, organism-based.
For another data set, the system named is HeLa. The description is as §1. Format: cell-based. The note with it: hela.
The next data set deals with HUVEC. The description is as §2. The format is cell-based. The note with it: human.

In the case of `COc1ccc2nc(C(F)(F)F)n(CC(=O)N3CCCCC3c3ncc(-c4cc5ccccc5nc4OC)[nH]3)c2c1` (stereo unspecified), the 50% effective concentration (EC50) in the data set on Trypanosoma brucei [1] came to 73 nM.

For the compound `COc1ccc2nc(C)n(C(=O)N3CCN(CC4CCOC4)C[C@H]3c3ncc(-c4cc5ccccc5nc4OC)[nH]3)c2c1` (stereo partly specified), the half-maximal effective concentration (EC50) in the data set on Trypanosoma brucei [1] was found to be 32 nM.

In the case of `COc1nc2ccccc2cc1-c1cnc([C@@H]2CN(CC3CCOC3)CCN2C(=O)n2c(C)nc3ccccc32)[nH]1` (stereo partly specified), in the data set with Trypanosoma brucei [1], the concentration giving a half-maximal response (EC50) amounted to 163 nM.

With `COc1ccc2nc(C(F)(F)F)n(C(=O)N3CCN(C4CCN(C)CC4)C[C@H]3c3ncc(-c4cc5ccccc5nc4OC)[nH]3)c2c1`, the EC50 in the data set on Trypanosoma brucei [1] came out at 180 nM.

`COc1nc2ccccc2cc1-c1cnc([C@@H]2CN(CC3CCOC3)CCN2C(=O)n2c(C)nc3cncnc32)[nH]1` (stereo partly specified): the EC50 in the data set with Trypanosoma brucei [1] was found to be 384 nM.

In the case of `COc1ccc2nc(C(F)(F)F)n(C(=O)N3CCN(CC4CCOC4)C[C@H]3c3ncc(-c4cc5ccccc5nc4OC)[nH]3)c2c1` (stereo partly specified), the EC50 in the data set on Trypanosoma brucei [1] came to 9 nM.

On to `COc1ccc2nc(C(F)(F)F)n(CC(=O)N3C[C@H](NC4CCOC4)CC[C@H]3c3ncc(-c4cc5ccccc5nc4OC)[nH]3)c2c1` (stereo partly specified), for which the EC50 with Trypanosoma brucei [1] was found to be 11 nM.

Consider `COc1ccc2[nH]c(C)c(C(=O)N3CCN(CC4CCOC4)C[C@H]3c3ncc(-c4cc5ccccc5nc4OC)[nH]3)c2c1` (mixture of isomers), for which the EC50 with Trypanosoma brucei [1] turned out to be 23 nM.

Consider `COc1ccc2nc(C(F)(F)F)n(CC(=O)N3CC[C@@H](N(C)C)C[C@H]3c3ncc(-c4cc5ccccc5nc4OC)[nH]3)c2c1`, for which, in the data set on Trypanosoma brucei [1], the EC50 turned out to be 659 nM.

Turning to `COc1ccc2nc(C(F)(F)F)n(CC(=O)N3CC[C@H](NC4CCOC4)C[C@H]3c3ncc(-c4cc5ccccc5nc4OC)[nH]3)c2c1` (stereo partly specified), the concentration for a half-maximal effect (EC50) came out at 232 nM in the data set with Trypanosoma brucei [2] and 7 nM in the data set with Trypanosoma brucei [1]. In addition, the values for the half-life in data set [3] and in [4] were 3.1 h and 4 h, respectively. In addition, the free fraction (fraction unbound) in data set [5] came out at 0.047. Also, the bioavailability in [6] was found to be 103%. Also, in data set [7], the Cmax turned out to be 5 µM. Also, the values for the half-maximal cytotoxic concentration (CC50) in data set [8] and in data set [9] were 7490 nM and 3680 nM, respectively.

On to `COc1ccc2nc(C(F)(F)F)n(CC(=O)N3CC[C@H](NCC4CCOC4)C[C@H]3c3ncc(-c4cc5ccccc5nc4OC)[nH]3)c2c1` (stereo partly specified), for which the EC50 in the data set on Trypanosoma brucei [1] is 17 nM.

For the compound `COc1ccc2nc(C(F)(F)F)n(CC(=O)N3CCN(CC4CCOC4)CCC3c3ncc(-c4cc5ccccc5nc4OC)[nH]3)c2c1` (stereo unspecified), the concentration for a half-maximal effect (EC50) with Trypanosoma brucei [1] is 51 nM.

As to `COc1ccc2nc(C(F)(F)F)n(CC(=O)N3CC[C@H](N(C)C)C[C@H]3c3ncc(-c4cc5ccccc5nc4OC)[nH]3)c2c1`, the EC50 in the data set on Trypanosoma brucei [1] amounted to 98 nM.

Consider `COc1nc2ccccc2cc1-c1cnc([C@@H]2CN(CC3CCOC3)CCN2C(=O)n2c(C(F)(F)F)nc3ccccc32)[nH]1` (stereo partly specified), for which the concentration for a half-maximal effect (EC50) with Trypanosoma brucei [2] worked out at 850 nM; in the data set with Trypanosoma brucei [1], 20 nM. For the same compound, in data set [10], the Papp amounted to 8.6 ×10⁻⁶ cm/s. The half-life is 2.6 h in data set [3] and 0.8 h in [4]. Moreover, the result in [11] was Active. Further, the fraction unbound in data set [5] came to 0.0204. For the same compound, the bioavailability in data set [6] came to 133%. The compound also had a Cmax in data set [7] of 6.9 µM.

As to `COc1ccc2nc(C(F)(F)F)n(C(=O)N3CCN(Cc4nccs4)C[C@H]3c3ncc(-c4cc5ccccc5nc4OC)[nH]3)c2c1`, the half-maximal effective concentration (EC50) in the data set with Trypanosoma brucei [1] came to 2 nM.

Turning to `COc1ccc2nc(C(F)(F)F)n(CC(=O)N3CCS(=O)(=O)CC3c3ncc(-c4cc5ccccc5nc4OC)[nH]3)c2c1` (stereo unspecified), in the data set on Trypanosoma brucei [1], the EC50 worked out at 355 nM.

As to `COc1ccc2nc(C(F)(F)F)n(C(=O)N3CCN(Cc4cnccn4)C[C@H]3c3ncc(-c4cc5ccccc5nc4OC)[nH]3)c2c1`, in the data set on Trypanosoma brucei [1], the EC50 worked out at 6 nM.

Regarding `COc1ccc2[nH]c(C)c(CC(=O)N3CCN(CC4CCOC4)CC3c3ncc(-c4ccc5ccccc5c4)[nH]3)c2c1` (stereo unspecified), the Activity result in the data set with HeLa and in the data set on HUVEC was “Non-Toxic” in each case.

For the compound `COc1ccc2nc(C(F)(F)F)n(CC(=O)N3CCOCC3c3ncc(-c4cc5ccccc5nc4OC)[nH]3)c2c1` (stereo unspecified), the EC50 in the data set with Trypanosoma brucei [1] turned out to be 286 nM.
